From ChEMBL document CHEMBL5053545, “Iterative Structure-Based Optimization of Short Peptides Targeting the Bacterial Sliding Clamp” (J Med Chem, 2021)
*1 amine or outer side, *2 acyl side, *3 side chain or, on linkers, in order; H or OH if unused. Where a SMILES comes first, the peptide text is derived from it. [ ]: non-standard residue; d: D form. The star is where a group is joined. N(3-imidazol-1-ylpropyl)Gly = O=C(O)CNCCCn1ccnc1; NEtAsp = CCN([C@@H](CC(=O)[*:3])C(=O)[*:2])[*:1]; ACHC(1S,2S) = O=C([C@H]1CCCC[C@@H]1N[*:1])[*:2]; Gly(N-3-morpholinopropyl) = O=C(O)CNCCCN1CCOCC1; Phe(3,4-Cl2) = N[C@@H](Cc1ccc(Cl)c(Cl)c1)C(=O)O; Phe(3,4-F2) = N[C@@H](Cc1ccc(F)c(F)c1)C(=O)O; Oic = O=C(O)[C@@H]1C[C@@H]2CCCC[C@@H]2N1; Caffeoyl = O=C(/C=C/c1ccc(O)c(O)c1)*; X6 = O=C([C@@H]1CC(O)CN1[*:1])[*:2]; NMeCha = CN[C@@H](CC1CCCCC1)C(=O)O; NMeR = CN[C@@H](CCCNC(=N)N)C(=O)O; NMeF = CN[C@@H](Cc1ccccc1)C(=O)O; tBuAla = CC(C)(C)C[C@H](N)C(=O)O; NMeQ = CN[C@@H](CCC(N)=O)C(=O)O; Cha = N[C@@H](CC1CCCCC1)C(=O)O; NMeD = CN[C@@H](CC(=O)O)C(=O)O; NMeL = CN[C@@H](CC(C)C)C(=O)O; Phe(ol) = N[C@H](CO)Cc1ccccc1; NHPhenethyl = c1ccc(CCN*)cc1; Pip = O=C(O)[C@@H]1CCCCN1; X4 = NC[C@H](Cc1ccccc1)N*

Key:
Escherichia coli [1] = assay: Binding affinity to Escherichia coli sliding clamp assessed as dissociation rate constant by ITC analysis
[2] = Binding affinity to Escherichia coli sliding clamp assessed as dissociation constant by ITC analysis
Escherichia coli [3] = assay: Binding affinity to Escherichia coli sliding clamp assessed as gibbs free energy change by ITC analysis
Escherichia coli [4] = assay: Binding affinity to Escherichia coli sliding clamp assessed as association rate constant by ITC analysis

Row | Compound | K (Escherichia coli [1]) | Kd [2] [µM] | deltaG (Escherichia coli [3]) [kcal/mol] | K (Escherichia coli [4])
1 | CC(=O)N[C@@H](CCC(N)=O)C(=O)N[C@@H](CC1CCCCC1)C(=O)N[C@@H](CC(=O)O)C(=O)N[C@@H](CC(C)C)C(=O)NCCc1ccccc1 (Ac-Q[Cha]DL-NHPhenethyl) | 1.8 10^-2/s | 0.922 | -8.2 | 1.9 10^4/M/s
2 | CC(=O)N[C@@H](CCC(N)=O)C(=O)N[C@@H](CC1CCCCC1)C(=O)N[C@@H](CC(=O)O)C(=O)N[C@@H](CC(C)C)C(=O)N[C@H](CN)Cc1ccccc1 (Ac-Q[Cha]DL-X4) | 1.1 10^-2/s | 0.877 | -8.27 | 1.2 10^4/M/s
3 | CC(=O)N[C@@H](CCC(N)=O)C(=O)N[C@@H](CC1CCCCC1)C(=O)N[C@@H](CC(=O)O)C(=O)N[C@@H](CC(C)C)C(=O)N[C@@H](Cc1ccccc1)C(N)=O (Ac-Q[Cha]DLF-NH2) | 9.1 10^-3/s | 0.268 | -9 | 3.3 10^4/M/s
4 | CC(=O)N[C@@H](CCC(N)=O)C(=O)N[C@@H](CC1CCCCC1)C(=O)N[C@@H](CC(=O)O)C(=O)N[C@@H](CC(C)C)C(=O)NCC(=O)N[C@@H](Cc1ccccc1)C(=O)O (Ac-Q[Cha]DLGF-OH) | 1.1 10^-2/s | 0.313 | -8.9 | 3.2 10^4/M/s
5 | CC(=O)N[C@@H](CCC(N)=O)C(=O)N[C@@H](CC1CCCCC1)C(=O)N[C@@H](CC(=O)O)C(=O)N[C@@H](CC(C)C)C(=O)NCC(=O)N[C@@H](CC(C)C)C(=O)O (Ac-Q[Cha]DLGL-OH) | 1.7 10^-2/s | 0.682 | -8.4 | 2.6 10^4/M/s
6 | CC(=O)N[C@@H](CCC(N)=O)C(=O)N[C@@H](CC1CCCCC1)C(=O)N[C@@H](CC(=O)O)C(=O)N[C@@H](CC(C)C)C(=O)NCC(=O)N[C@@H](CC(C)(C)C)C(=O)O (Ac-Q[Cha]DLG[tBuAla]-OH) | 3 10^-2/s | 2.69 | -7.6 | 1.1 10^4/M/s
7 | CC(=O)N[C@@H](CCC(N)=O)C(=O)N[C@@H](CC1CCCCC1)C(=O)N[C@@H](CC(=O)O)C(=O)N[C@@H](CC(C)C)C(=O)N1CCC[C@H]1C(=O)N[C@@H](Cc1ccccc1)C(=O)O (Ac-Q[Cha]DLPF-OH) | 5 10^-3/s | 0.081 | -9.7 | 6 10^4/M/s
8 | CC(=O)N[C@@H](CCC(N)=O)C(=O)N[C@@H](CC1CCCCC1)C(=O)N[C@@H](CC(=O)O)C(=O)N[C@@H](CC(C)C)C(=O)N1CCC[C@H]1C(=O)N[C@@H](CC(C)C)C(=O)O (Ac-Q[Cha]DLPL-OH) | 1.1 10^-2/s | 0.182 | -9.2 | 5.7 10^4/M/s
9 | CC(=O)N[C@@H](CCC(N)=O)C(=O)N[C@@H](CC1CCCCC1)C(=O)N[C@@H](CC(=O)O)C(=O)N[C@@H](CC(C)C)C(=O)N[C@H]1CCCC[C@@H]1C(=O)N[C@@H](CC(C)C)C(=O)O (Ac-Q[Cha]DL[ACHC(1S,2S)]L-OH) | 2.9 10^-2/s | 4.07 | -7.4 | 7.4 10^4/M/s
10 | CC(=O)N[C@@H](CCC(N)=O)C(=O)N[C@@H](CC1CCCCC1)C(=O)N[C@@H](CC(=O)O)C(=O)N[C@@H](CC(C)C)C(=O)N(C)[C@@H](Cc1ccccc1)C(=O)O (Ac-Q[Cha]DL[NMeF]-OH) | 5.4 10^-2/s | > 1 | -7.1 | 1 10^4/M/s
11 | CC(=O)N[C@@H](CCC(N)=O)C(=O)N[C@@H](CC1CCCCC1)C(=O)N[C@@H](CC(=O)O)C(=O)N[C@@H](CC(C)C)C(=O)N1[C@H](C(=O)N[C@@H](Cc2ccccc2)C(=O)O)C[C@@H]2CCCC[C@@H]21 (Ac-Q[Cha]DL[Oic]F-OH) | 7.1 10^-3/s | 0.12 | -9.5 | 5.5 10^4/M/s
12 | CC(=O)N[C@@H](CCC(N)=O)C(=O)N[C@@H](CC1CCCCC1)C(=O)N[C@@H](CC(=O)O)C(=O)N[C@@H](CC(C)C)C(=O)N1[C@H](C(=O)N[C@@H](CC(C)C)C(=O)O)C[C@@H]2CCCC[C@@H]21 (Ac-Q[Cha]DL[Oic]L-OH) | 3.9 10^-3/s | 0.057 | -9.9 | 7.1 10^4/M/s
13 | CC(=O)N[C@@H](CCC(N)=O)C(=O)N[C@@H](CC1CCCCC1)C(=O)N[C@@H](CC(=O)O)C(=O)N[C@@H](CC(C)C)C(=O)N[C@H](CO)Cc1ccccc1 (Ac-Q[Cha]DL[Phe(ol)]) | 1.9 10^-2/s | 0.751 | -8.4 | 2.6 10^4/M/s
14 | CC(=O)N[C@@H](CCC(N)=O)C(=O)N[C@@H](CC1CCCCC1)C(=O)N[C@@H](CC(=O)O)C(=O)N[C@@H](CC(C)C)C(=O)N1CCCC[C@H]1C(=O)N[C@@H](CC(C)C)C(=O)O (Ac-Q[Cha]DL[Pip]L-OH) | 1 10^-2/s | 0.243 | -9 | 4.3 10^4/M/s
15 | CC(=O)N[C@@H](CCC(N)=O)C(=O)N[C@@H](CC1CCCCC1)C(=O)N[C@@H](CC(=O)O)C(=O)N[C@@H](CC(C)C)C(=O)N1CC(O)C[C@H]1C(=O)N[C@@H](CC(C)C)C(=O)O (stereo partly drawn) (Ac-Q[Cha]DL[X6]L-OH) | 1.7 10^-2/s | 0.369 | -8.8 | 4.4 10^4/M/s
16 | CC(=O)N[C@@H](CCC(N)=O)C(=O)N[C@@H](CC1CCCCC1)C(=O)N[C@@H](CC(=O)O)C(=O)N(C)[C@@H](CC(C)C)C(=O)N[C@@H](Cc1ccccc1)C(=O)O (Ac-Q[Cha]D[NMeL]F-OH) |  | > 1 | -5.2 | 

Row | Compound | K (Escherichia coli [1]) | Kd [2] [µM] | deltaG (Escherichia coli [3]) [kcal/mol] | K (Escherichia coli [4])
17 | CCN(C(=O)[C@H](CC1CCCCC1)NC(=O)[C@H](CCC(N)=O)NC(C)=O)[C@@H](CC(=O)O)C(=O)N[C@@H](CC(C)C)C(=O)N[C@@H](Cc1ccccc1)C(=O)O (Ac-Q[Cha][NEtAsp]LF-OH) | 1.3 10^-2/s | 0.523 | -8.6 | 2.9 10^4/M/s
18 | CC(=O)N[C@@H](CCC(N)=O)C(=O)N[C@@H](CC1CCCCC1)C(=O)N(C)[C@@H](CC(=O)O)C(=O)N[C@@H](CC(C)C)C(=O)N[C@@H](Cc1ccccc1)C(=O)O (Ac-Q[Cha][NMeD]LF-OH) | 1.9 10^-2/s | 0.114 | -9.5 | 2.1 10^4/M/s
19 | CC(=O)N[C@@H](CCC(N)=O)C(=O)N[C@@H](CC1CCCCC1)C(=O)N(C)[C@@H](CC(=O)O)C(=O)N[C@@H](CC(C)C)C(=O)N1CCC[C@H]1C(=O)N[C@@H](CC(C)C)C(=O)O (Ac-Q[Cha][NMeD]LPL-OH) | 2.3 10^-2/s | 0.263 | -9 | 1 10^5/M/s
20 | CC(=O)N[C@@H](CCC(N)=O)C(=O)N[C@@H](CC1CCCCC1)C(=O)N(C)[C@@H](CC(=O)O)C(=O)N[C@@H](CC(C)C)C(=O)N1CCC[C@H]1C(=O)N[C@@H](Cc1ccc(Cl)c(Cl)c1)C(=O)O (Ac-Q[Cha][NMeD]LP[Phe(3,4-Cl2)]-OH) | 7.9 10^-3/s | 0.231 | -9.1 | 3.8 10^4/M/s
21 | CC(=O)N[C@@H](CCC(N)=O)C(=O)N[C@@H](CC1CCCCC1)C(=O)N(C)[C@@H](CC(=O)O)C(=O)N[C@@H](CC(C)C)C(=O)N[C@@H](Cc1ccc(Cl)c(Cl)c1)C(=O)O (Ac-Q[Cha][NMeD]L[Phe(3,4-Cl2)]-OH) | 1 10^-2/s | 0.041 | -10.1 | 2.7 10^5/M/s
22 | CC(=O)N[C@@H](CCC(N)=O)C(=O)N[C@@H](CC1CCCCC1)C(=O)N(C)[C@@H](CC(=O)O)C(=O)N[C@@H](CC(C)C)C(=O)N[C@@H](Cc1ccc(F)c(F)c1)C(=O)O (Ac-Q[Cha][NMeD]L[Phe(3,4-F2)]-OH) | 8.4 10^-3/s | 0.148 | -9.3 | 5.6 10^4/M/s
23 | CC(=O)N[C@@H](CCC(N)=O)C(=O)N(C)[C@@H](CC1CCCCC1)C(=O)N[C@@H](CC(=O)O)C(=O)N[C@@H](CC(C)C)C(=O)N[C@@H](Cc1ccccc1)C(=O)O (Ac-Q[NMeCha]DLF-OH) |  | > 1 | -6 | 
24 | CC(=O)N[C@@H](CCCNC(=N)N)C(=O)N[C@@H](CCC(N)=O)C(=O)N[C@@H](CC1CCCCC1)C(=O)N[C@@H](CC(=O)O)C(=O)N[C@@H](CC(C)C)C(=O)N[C@@H](Cc1ccccc1)C(=O)O (Ac-RQ[Cha]DLF-OH) | 1.9 10^-2/s | 0.498 | -8.6 | 3.7 10^4/M/s
25 | CC(=O)N[C@@H](CCCNC(=N)N)C(=O)N[C@@H](CCC(N)=O)C(=O)N[C@@H](CC1CCCCC1)C(=O)N(C)[C@@H](CC(=O)O)C(=O)N[C@@H](CC(C)C)C(=O)N[C@@H](Cc1ccc(Cl)c(Cl)c1)C(=O)O (Ac-RQ[Cha][NMeD]L[Phe(3,4-Cl2)]-OH) | 2.1 10^-2/s | 0.278 | -8.9 | 7.6 10^4/M/s
26 | CC(=O)N(C)[C@@H](CCC(N)=O)C(=O)N[C@@H](CC1CCCCC1)C(=O)N[C@@H](CC(=O)O)C(=O)N[C@@H](CC(C)C)C(=O)N[C@@H](Cc1ccccc1)C(=O)O (Ac-[NMeQ][Cha]DLF-OH) | 4.6 10^-2/s | > 1 | -7.7 | 2.1 10^4/M/s
27 | CC(=O)N(C)[C@@H](CCCNC(=N)N)C(=O)N[C@@H](CCC(N)=O)C(=O)N[C@@H](CC1CCCCC1)C(=O)N[C@@H](CC(=O)O)C(=O)N[C@@H](CC(C)C)C(=O)N[C@@H](Cc1ccccc1)C(=O)O (Ac-[NMeR]Q[Cha]DLF-OH) | 2.9 10^-2/s | 2.13 | -7.7 | 2.1 10^4/M/s
28 | CC(=O)N(C)[C@@H](CCCNC(=N)N)C(=O)N[C@@H](CCC(N)=O)C(=O)N[C@@H](CC1CCCCC1)C(=O)N(C)[C@@H](CC(=O)O)C(=O)N[C@@H](CC(C)C)C(=O)N[C@@H](Cc1ccc(Cl)c(Cl)c1)C(=O)O (Ac-[NMeR]Q[Cha][NMeD]L[Phe(3,4-Cl2)]-OH) | 9.4 10^-3/s | 0.092 | -9.6 | 1.1 10^5/M/s
29 | CC(C)C[C@H](NC(=O)[C@H](CC(=O)O)NC(=O)[C@H](CC1CCCCC1)NC(=O)[C@H](CCC(N)=O)NC(=O)/C=C/c1ccc(O)c(O)c1)C(=O)N[C@@H](Cc1ccccc1)C(=O)O (Caffeoyl-Q[Cha]DLF-OH) | 4.7 10^-3/s | 0.099 | -9.5 | 4.6 10^4/M/s
30 | CC(C)C[C@H](NC(=O)[C@H](CC(=O)O)NC(=O)[C@H](CC1CCCCC1)NC(=O)[C@H](CCC(N)=O)NC(=O)CNCCCN1CCOCC1)C(=O)N[C@@H](Cc1ccccc1)C(=O)O (H-[Gly(N-3-morpholinopropyl)]Q[Cha]DLF-OH) | 1.4 10^-2/s | 0.796 | -8.3 | 1.8 10^4/M/s
31 | CC(C)C[C@H](NC(=O)[C@H](CC(=O)O)NC(=O)[C@H](CC1CCCCC1)NC(=O)[C@H](CCC(N)=O)NC(=O)CNCCCn1ccnc1)C(=O)N[C@@H](Cc1ccccc1)C(=O)O (H-[N(3-imidazol-1-ylpropyl)Gly]Q[Cha]DLF-OH) | 1.1 10^-2/s | 0.312 | -8.9 | 4.2 10^4/M/s
